Columns and labels:
[1] = tested on: mammalian cells; assay: Pilot test of effect on mitotic cell division; conditions: compound in tablet form
[2] = tested on: Yersinia; format: cell-based; conditions: Müler-Hinton-Agar
[3] = Clinical pilot study on side effects, 60 humans; format: in vivo; conditions: 250 mg/30 kg body weight every 12 h for 7 days
Experimental: The reason for this testing was to check if the compound tablets, after a longer period of use, can cause any eventual side effects.
The test results were generated and monitored to obtain the relevant information and facts. In this study, the general monitored parameters were: pulse, breathing, ECG (Electrocardiography), discomfort, adverse events, and/or allergy monitoring. These parameters were measured before the treatment with the compound and 15 min after its intake. The compound was ingested on the therapeutic days in each patient at 8.00 AM and 8.00 PM CET (paragraph [0034] and paragraph [0035]). After The compound had been consumed, the physician made observations for 30 min. The patients' feelings during and after the compound intake were also recorded for each participant.
As part of the biochemical analysis of patients' blood, each patient's blood sample was checked for biochemical parameters. Blood samples were taken from each patient before the beginning of the test, on the 4th day from the tests beginning, and on the 8th day from the tests beginning. […] The biochemical parameters that were measured in blood samples include: • 1. Liver status • 2. C Reactive protein • 3. Kidney status
The dose was: 250 mg of the compound/30 kg of the body weight every 12 h for seven (7) days (paragraph [0034] and paragraph [0035]). […]

[4] = tested on: Salmonella typhimurium DT104; assay: Zone diameter on Müler-Hinton-Agar; format: cell-based
[5] = tested on: white lab mice; assay: Acute toxicity, oral LD50 p.o., mice
[6] = tested on: white lab rats; assay: Acute toxicity, parenteral intraperitoneal LD50 i.p., rats
[7] = tested on: Streptococcus uberis; assay: Zone diameter on Müler-Hinton-Agar; format: cell-based
[8] = tested on: Vibrio; assay: Zone diameter on Müler-Hinton-Agar; format: cell-based
[9] = tested on: Campylobacter; assay: Zone diameter on Müler-Hinton-Agar; format: cell-based
[10] = tested on: Listeria; assay: Zone diameter on Müler-Hinton-Agar; format: cell-based
[11] = tested on: Salmonella; assay: Zone diameter on Müler-Hinton-Agar; format: cell-based
[12] = tested on: bacteria; assay: In vitro studies of bactericide effect versus Thymol and Carvacrol; format: cell-based
[13] = tested on: Streptococcus pyogenes; assay: Zone diameter on Müler-Hinton-Agar; format: cell-based
[14] = tested on: Streptococcus pneumonia; assay: Zone diameter on Müler-Hinton-Agar; format: cell-based
[15] = tested on: Listeria monocytogenes; assay: Zone diameter on Müler-Hinton-Agar; format: cell-based
[16] = tested on: white lab rats; assay: Acute toxicity, oral LD50 p.o., rats
[17] = tested on: Escherichia coli 0157H5; assay: Zone diameter on Müler-Hinton-Agar; format: cell-based
[18] = tested on: white lab mice; assay: Acute toxicity, parenteral intraperitoneal LD50 i.p., mice; conditions: mouse, in vivo
[19] = tested on: Shigella; assay: Zone diameter on Müler-Hinton-Agar; format: cell-based
[20] = tested on: Staphylococcus aureus; assay: Zone diameter on Müler-Hinton-Agar; format: cell-based

Row | Compound | R (evaluation by zone diameter) [2] | R (evaluation by zone diameter) [4] | R (evaluation by zone diameter) [7] | R (evaluation by zone diameter) [8] | R (evaluation by zone diameter) [9] | R (evaluation by zone diameter) [10] | R (evaluation by zone diameter) [11] | R (evaluation by zone diameter) [13] | R (evaluation by zone diameter) [14] | R (evaluation by zone diameter) [15] | R (evaluation by zone diameter) [17] | R (evaluation by zone diameter) [19] | R (evaluation by zone diameter) [20] | other results
1 | 2-(2-isopropyl-5-methylphenoxy)-2-oxoethan-1-aminium 2-isopropyl-5methylphenolate [The novel compound] | ES (21 mm and more: extremely sensitive: ES) | ES (21 mm and more: extremely sensitive: ES) | ES (21 mm and more: extremely sensitive: ES) | ES (21 mm and more: extremely sensitive: ES) | ES (21 mm and more: extremely sensitive: ES) | ES (21 mm and more: extremely sensitive: ES) | ES (21 mm and more: extremely sensitive: ES) | ES (21 mm and more: extremely sensitive: ES) | ES (21 mm and more: extremely sensitive: ES) | ES (21 mm and more: extremely sensitive: ES) | ES (21 mm and more: extremely sensitive: ES) | ES (21 mm and more: extremely sensitive: ES) | ES (21 mm and more: extremely sensitive: ES) | effect on mitotic cell division [1]: no negative effects were diagnosed; allergy symptoms [3]: no allergy symptoms; tolerance [3]: showed tolerance; time after which discomfort symptoms disappeared ([5]; mice, p.o., 2,000 mg/kg): 1 to 3 min; mice that changed their behavior and demonstrated light discomfort ([5]; out of 100 mice, oral dose 2,000 mg/kg): 21; rats that changed their behavior and demonstrated discomfort ([6]; out of 100 rats, i.p. dose 2,500 mg/kg): 35; time after which discomfort symptoms disappeared ([6]; rats, i.p., 2,500 mg/kg): 5 to 6 min; bactericide effect compared with Thymol and Carvacrol [12]: more effective and faster bactericide effect than existing Thymol and Carvacrol; rats that changed their behavior and demonstrated light discomfort ([16]; out of 100 rats, oral dose 2,500 mg/kg): 37; time after which discomfort symptoms disappeared ([16]; rats, p.o., 2,500 mg/kg): 1 to 3 min; mice that changed their behavior and demonstrated discomfort [18]: 27; time after which discomfort symptoms disappeared [18]: 3 to 5 min
2 | CC1(C)S[C@@H]2[C@H](NC(=O)[C@H](N)c3ccccc3)C(=O)N2[C@H]1C(=O)O [Ampicillin] | R (0 mm-4 mm: resistant: R) | MS (5 mm-9 mm: moderately sensitive: MS) | R (0 mm-4 mm: resistant: R) | R (0 mm-4 mm: resistant: R) | R (0 mm-4 mm: resistant: R) | R (0 mm-4 mm: resistant: R) | MS (5 mm-9 mm: moderately sensitive: MS) | R (0 mm-4 mm: resistant: R) | R (0 mm-4 mm: resistant: R) | MS (5 mm-9 mm: moderately sensitive: MS) | MS (5 mm-9 mm: moderately sensitive: MS) | MS (5 mm-9 mm: moderately sensitive: MS) | R (0 mm-4 mm: resistant: R) | –
